# Experimental data reported in publication PMC3681751, “Identification of a Novel Antimicrobial Peptide from Human Hepatitis B Virus Core Protein Arginine-Rich Domain (ARD)” (PLoS Pathogens, 2013).
# Residues, ends and D or L forms follow the SMILES beside them.
# Key:
# [1] = system: K. pneumonia (ATCC 13884); assay type: cell-based, Klebsiella pneumoniae; settings: 3 h at 37°C in phosphate buffer pH 7.2; triplicate
# [2] = system: A. baumannii ATCC17978 CR; assay type: cell-based, Acinetobacter baumannii; settings: colistin-resistant A. baumannii of Table 2
# Excerpt: (§1) Clinical isolates of Pseudomonas aeruginosa (NHRI-01, NHRI-02 and NHRI-04) were obtained through the program of Taiwan Surveillance of Antimicrobial Resistance (TSAR), National Health Research Institutes (NHRI), Taiwan. Acinetobacter baumannii (ATCC 17989, ATCC 17978 CR, ATCC19606, ATCC 19606 CR, TCGH 45530 and TCGH 46709) were obtained from Tzu-Chi Buddhist General Hospital (TCGH) in Taiwan, and clinical isolates (TCGH 45530 and TCGH 46709) were identified using the Vitek system (Biomerieux Vitek, Inc., Hazelwood, MO, USA). A. baumannii is defined as multidrug-resistant, when the organism is resistant to piperacillin, piperacillin-tazobactam, ampicillin/sulbactam, imipenem, ceftazidime, gentamicin, amikacin, tetracycline, chloramphenicol, ciprofloxacin, and cotrimoxazole. Susceptibility to colistin was determined using the broth-dilution method, in accordance with the guidelines of the Clinical and Laboratory Standards Institute (CLSI).
# (§2) All peptides were purchased from Yao-Hong Biotechnology Inc. (Taipei, Taiwan). Vendors provided data of peptide characterizations, including HPLC and Mass (data not shown). Antimicrobial activity was determined as described with some modifications as detailed below. Bacteria were grown overnight in Mueller–Hinton broth (Difco) at 37°C, and during the mid-logarithmic phase, bacteria were diluted to 10^6 CFU (colony formation unit)/ml in phosphate buffer (10 mM sodium phosphate and 50 mM sodium chloride, pH 7.2). Peptides were serially diluted in the same buffer. Fifty microliter (µl) of bacteria was mixed with fifty µl of peptides at varying concentrations followed by incubation at 37°C for 3 hours without shaking. At the end of incubation, bacteria were placed on Mueller-Hinton broth agar plates, and allowed growth at 37°C overnight for measurement of minimal bactericidal concentration (MBC). […] All peptides were tested in triplicate.
# [3] = system: A. baumannii ATCC19606 CR; assay type: cell-based, Acinetobacter baumannii; settings: Induced Colistin resistant strain; colistin susceptibility by broth-dilution (CLSI)
# Excerpt: as §1, §2
# [4] = system: A. baumannii ATCC19606; assay type: cell-based, Acinetobacter baumannii; settings: ATCC19606, 3 h
# Excerpt: as §1, §2
# [5] = system: E. coli; assay: SYTOX Green uptake (membrane permeabilization); assay type: cell-based, Escherichia coli; settings: 4 µM peptide; 10^7 CFU, 1 µM SYTOX Green, 37°C
# Method: Briefly, bacteria (10^7 CFU) were prepared and mixed with 1 µM SYTOX Green (Invitrogen) for 15 minutes in the dark. […] Melittin (Sigma), the major toxin of bee venom, was used as a positive control to provide maximal permeabilization.
# [6] = In vitro peptide-Lipid A binding on streptavidin beads (LAL test); set-up: species or system Escherichia coli; settings: biotinylated peptide 0-2.5 µM on streptavidin beads, 200 µg/ml lipid A, triplicates
# Method: Several kinds of peptide-LPS or peptide-Lipid A binding assays were performed in this study: 1) Streptavidine-conjugated beads (Dynabeads MyOne Streptavidin T1, Invitrogen) were blocked by P. aeruginosa LPS (Sigma) at 37°C for 1.5 hour. After washing with PBST (PBS, pH 7.4 containing 0.1% (w/v) Tween-20), aliquots containing 250 pmol streptavidine-conjugated beads were incubated with a reaction mixture overnight at 4°C. The reaction mixture was prepared by mixing increasing amounts of biotinylated peptide HBc147-183 (0, 0.004, 0.02, 0.1, 0.5 and 2.5 µM) and 5 µg/ml P. aeruginosa LPS (Sigma) or 200 µg/ml E. coli lipid A (Sigma), at 37°C for 3 hour. After incubation overnight at 4°C, the reduction of LPS (or Lipid A) in the supernatants were measured by the Limulus Amebocyte Lysate (LAL) test (Charles River Endosafe) with an ELISA reader (Molecular Devices). The amount (EU/ml) of LPS was calculated according to the standard curve prepared with Endosafe Control Srandard Endotoxin. […] After trypsinization, the trypsin-released LPS in the supernatants were collected and measured by the Limulus Amebocyte Lysate (LAL) test. […] Plate-bound HBc147-183 was measured by streptavidin conjugated with HRP (1∶10000 dilution) for 1 hour at 37°C. […] The absorption was measured at 450 nm with a reference wavelength at 655 nm.
# [7] = system: Vero cells; assay: CFSE cell proliferation assay; assay type: cell-based, monkey; settings: 5, 25 and 100 µM for 1 hour; flow cytometry
# Method: (§3) To set up CFSE cell proliferation assay, 293 cells (human kidney origin) and Vero cells (monkey kidney origin) were resuspended in PBS to a final concentration of 10^6 cells/ml, before incubation with 10 µM CFSE dye (CellTrace CFSE cell proliferation kit, Invitrogen) at 37°C for 10 min. To quench the staining, ice-old culture media were then added and incubated on ice for 5 min. Labeled cells were then pelleted and washed three times by fresh medium containing 10% FBS before seeding into six well plates at a density of 3.3×10^5cells/well. After 20 h, the medium was removed and incubated with fresh medium containing 5, 25 and 100 µM HBc 147-183 for one hour (FITC-labeled ARD peptide had been largely internalized in 10 minutes after the addition of ARD peptides to the medium of HepG2 cells). Forty-eight hours later, cells were harvested and analyzed by flow cytometry (FACSCanto, BD Bioscience).
# [8] = system: HEK293 cells; assay: CFSE cell proliferation assay; assay type: cell-based, human; settings: 5, 25 and 100 µM for 1 hour; flow cytometry
# Method: as §3
# [9] = system: Huh 7 cells; assay: Peptide uptake into mammalian cells; assay type: cell-based, human; settings: data not shown
structure (smiles),measurement,setting,value
CC(C)[C@H](NC(=O)[C@@H](NC(=O)[C@@H](N)[C@@H](C)O)C(C)C)C(=O)N[C@@H](CCCNC(=N)N)C(=O)N[C@@H](CCCNC(=N)N)C(=O)N[C@@H](CCCNC(=N)N)C(=O)NCC(=O)N[C@@H](CCCNC(=N)N)C(=O)N[C@@H](CO)C(=O)N1CCC[C@H]1C(=O)N[C@@H](CCCNC(=N)N)C(=O)N[C@@H](CCCNC(=N)N)C(=O)N[C@@H](CCCNC(=N)N)C(=O)N[C@H](C(=O)N1CCC[C@H]1C(=O)N[C@@H](CO)C(=O)N1CCC[C@H]1C(=O)N[C@@H](CCCNC(=N)N)C(=O)N[C@@H](CCCNC(=N)N)C(=O)N[C@@H](CCCNC(=N)N)C(=O)N[C@@H](CCCNC(=N)N)C(=O)N[C@@H](CO)C(=O)N[C@@H](CCC(N)=O)C(=O)N[C@@H](CO)C(=O)N1CCC[C@H]1C(=O)N[C@@H](CCCNC(=N)N)C(=O)N[C@@H](CCCNC(=N)N)C(=O)N[C@@H](CCCNC(=N)N)C(=O)N[C@@H](CCCNC(=N)N)C(=O)N[C@@H](CO)C(=O)N[C@@H](CCC(N)=O)C(=O)N[C@@H](CO)C(=O)N[C@@H](CCCNC(=N)N)C(=O)N[C@@H](CCC(=O)O)C(=O)N[C@@H](CO)C(=O)N[C@@H](CCC(N)=O)C(=O)N[C@@H](CS)C(=O)O)[C@@H](C)O [HBc147-183] (H-TVVRRRGRSPRRRTPSPRRRRSQSPRRRRSQSRESQC-OH; N-terminus and C-terminus assumed),"Antimicrobial activity, MBC",[1],9.18 µg/mL
same,MBC against all tested colistin-resistant A. baumannii,[2],0.5 to 1 µM
same,MBC,[3],2.30 µg/mL
same,MBC,[4],2.30 µg/mL
same,Membrane permeabilization (SYTOX Green uptake),[5],not able to induce membrane permeabilization
same,Binding to Lipid A,[6],Lipid A can bind to HBc147-183 directly
same,"Effect on cell proliferation (CFSE intensity, day 3 vs mock)",[7],no significant effect
same,"Effect on cell proliferation (CFSE intensity, day 3 vs mock)",[8],no significant effect
same,Penetration through the cell membrane,[9],can penetrate through the cell membrane
